Source: ChEMBL document CHEMBL3885861, “Open TG-GATES”

Organism: Rattus norvegicus
Test: Open TG-GATES - Regimen: Daily Repeat
Type: toxicity, organism-based, Sprague-Dawley
Set-up: regimen Daily Repeat, gender Male, age 6 weeks
Settings: in vivo, po, 300 mg/kg, route gavage, dose level Low; for APTT / Bas / Eos / Fbg / Hb / Ht / Lym / MCH / MCHC / MCV / Mono / Neu / PT / Plat / RBC / Ret / WBC: tissue Blood; for KIDNEY_L / KIDNEY_R / KIDNEY_TOTAL: tissue Kidney; for LIVER: tissue Liver; for A/G / ALP / ALT / AST / BUN / CRE / Ca / Cl / DBIL / GLC / IP / K / LDH / Na / PL / RALB / TBIL / TC / TG / TP / gamma-GTP: tissue Plasma

COc1ccc(O)c(C(C)(C)C)c1.COc1ccc(O)cc1C(C)(C)C [BUTYLATED HYDROXYANISOLE]
TERMINAL_BW (72 h, time 3 day): 219.2 g
APTT (72 h, time 3 day): 15.4 s
Bas (72 h, time 3 day): 0.3%
Eos (72 h, time 3 day): 1.2%
Fbg (72 h, time 3 day): 275.8 mg/dL
Hb (72 h, time 3 day): 12.7 g/dL
Ht (72 h, time 3 day): 37.2%
Lym (72 h, time 3 day): 78.2%
MCH (72 h, time 3 day): 20.4 pg
MCHC (72 h, time 3 day): 34.2%
MCV (72 h, time 3 day): 59.9 fL
Mono (72 h, time 3 day): 2.2%
Neu (72 h, time 3 day): 17.1%
PT (72 h, time 3 day): 11.5 s
Plat (72 h, time 3 day): 148 x10_4/uL
RBC (72 h, time 3 day): 623.6 x10_4/ul
Ret (72 h, time 3 day): 4.9%
WBC (72 h, time 3 day): 112 x10_2/uL
KIDNEY_L (72 h, time 3 day): 0.9 g
KIDNEY_R (72 h, time 3 day): 0.9 g
KIDNEY_TOTAL (72 h, time 3 day): 1.7 g
LIVER (72 h, time 3 day): 12.2 g
A/G (72 h, time 3 day): 0.8
ALP (72 h, time 3 day): 1525.6 IU/L
ALT (72 h, time 3 day): 36.4 IU/L
AST (72 h, time 3 day): 64.8 IU/L
BUN (72 h, time 3 day): 15.8 mg/dL
CRE (72 h, time 3 day): 0.2 mg/dL
Ca (72 h, time 3 day): 11.2 mg/dL
Cl (72 h, time 3 day): 106.4 meq/L
DBIL (72 h, time 3 day): 0.02 mg/dL
GLC (72 h, time 3 day): 171.4 mg/dL
IP (72 h, time 3 day): 6.3 mg/dL
K (72 h, time 3 day): 4.3 meq/L
LDH (72 h, time 3 day): 60.6 IU/L
Na (72 h, time 3 day): 142.2 meq/L
PL (72 h, time 3 day): 173.4 mg/dL
RALB (72 h, time 3 day): 2.7 g/dL
TBIL (72 h, time 3 day): 0.064 mg/dL
TC (72 h, time 3 day): 95.6 mg/dL
TG (72 h, time 3 day): 89.8 mg/dL
TP (72 h, time 3 day): 6 g/dL
gamma-GTP (72 h, time 3 day): 1.2 IU/L
TERMINAL_BW ([…], time 7 day): 261 g
TERMINAL_BW ([…], time 14 day): 311.5 g
TERMINAL_BW ([…], time 28 day): 401.5 g
APTT ([…], time 7 day): 15.7 s
Bas ([…], time 7 day): 0.2%
Eos ([…], time 7 day): 0.6%
Fbg ([…], time 7 day): 300.8 mg/dL
Hb ([…], time 7 day): 13 g/dL
Ht ([…], time 7 day): 38.5%
Lym ([…], time 7 day): 74.3%
MCH ([…], time 7 day): 20.4 pg
MCHC ([…], time 7 day): 33.7%
MCV ([…], time 7 day): 60.4 fL
Mono ([…], time 7 day): 2.4%
Neu ([…], time 7 day): 21.7%
PT ([…], time 7 day): 11.5 s
Plat ([…], time 7 day): 154.1 x10_4/uL
RBC ([…], time 7 day): 638 x10_4/ul
Ret ([…], time 7 day): 6.1%
WBC ([…], time 7 day): 97.1 x10_2/uL
APTT ([…], time 14 day): 15.2 s
Bas ([…], time 14 day): 0.2%
Eos ([…], time 14 day): 0.7%
Fbg ([…], time 14 day): 319.4 mg/dL
Hb ([…], time 14 day): 13.7 g/dL
Ht ([…], time 14 day): 39.7%
Lym ([…], time 14 day): 77.1%
MCH ([…], time 14 day): 19.7 pg
MCHC ([…], time 14 day): 34.6%
MCV ([…], time 14 day): 57 fL
Mono ([…], time 14 day): 2.2%
Neu ([…], time 14 day): 19.3%
PT ([…], time 14 day): 11.5 s
Plat ([…], time 14 day): 140.8 x10_4/uL
RBC ([…], time 14 day): 696.8 x10_4/ul
Ret ([…], time 14 day): 3.8%
WBC ([…], time 14 day): 87.1 x10_2/uL
APTT ([…], time 28 day): 19.5 s
Bas ([…], time 28 day): 0.5%
Eos ([…], time 28 day): 0.6%
Fbg ([…], time 28 day): 303.6 mg/dL
Hb ([…], time 28 day): 14.9 g/dL
Ht ([…], time 28 day): 41.2%
Lym ([…], time 28 day): 75.9%
MCH ([…], time 28 day): 19.7 pg
MCHC ([…], time 28 day): 36%
MCV ([…], time 28 day): 54.7 fL
Mono ([…], time 28 day): 1.7%
Neu ([…], time 28 day): 20.7%
PT ([…], time 28 day): 12.1 s
Plat ([…], time 28 day): 114.8 x10_4/uL
RBC ([…], time 28 day): 753.2 x10_4/ul
Ret ([…], time 28 day): 2.2%
WBC ([…], time 28 day): 131.8 x10_2/uL
KIDNEY_L ([…], time 7 day): 1 g
KIDNEY_R ([…], time 7 day): 1 g
KIDNEY_TOTAL ([…], time 7 day): 2.1 g
KIDNEY_L ([…], time 14 day): 1.1 g
KIDNEY_R ([…], time 14 day): 1.1 g
KIDNEY_TOTAL ([…], time 14 day): 2.2 g
KIDNEY_L ([…], time 28 day): 1.4 g
KIDNEY_R ([…], time 28 day): 1.3 g
KIDNEY_TOTAL ([…], time 28 day): 2.7 g
LIVER ([…], time 7 day): 13.6 g
LIVER ([…], time 14 day): 15.1 g
LIVER ([…], time 28 day): 18.5 g
A/G ([…], time 7 day): 0.8
ALP ([…], time 7 day): 1426 IU/L
ALT ([…], time 7 day): 33.8 IU/L
AST ([…], time 7 day): 59.8 IU/L
BUN ([…], time 7 day): 15.2 mg/dL
CRE ([…], time 7 day): 0.2 mg/dL
Ca ([…], time 7 day): 11.3 mg/dL
Cl ([…], time 7 day): 105 meq/L
DBIL ([…], time 7 day): 0.018 mg/dL
GLC ([…], time 7 day): 176 mg/dL
IP ([…], time 7 day): 7.2 mg/dL
K ([…], time 7 day): 3.9 meq/L
LDH ([…], time 7 day): 61.2 IU/L
Na ([…], time 7 day): 142.8 meq/L
PL ([…], time 7 day): 163 mg/dL
RALB ([…], time 7 day): 2.7 g/dL
TBIL ([…], time 7 day): 0.054 mg/dL
TC ([…], time 7 day): 91 mg/dL
TG ([…], time 7 day): 100.2 mg/dL
TP ([…], time 7 day): 6.1 g/dL
gamma-GTP ([…], time 7 day): 1 IU/L
A/G ([…], time 14 day): 0.8
ALP ([…], time 14 day): 1317.4 IU/L
ALT ([…], time 14 day): 34.6 IU/L
AST ([…], time 14 day): 58.6 IU/L
BUN ([…], time 14 day): 15.8 mg/dL
CRE ([…], time 14 day): 0.2 mg/dL
Ca ([…], time 14 day): 10.9 mg/dL
Cl ([…], time 14 day): 106.6 meq/L
DBIL ([…], time 14 day): 0.012 mg/dL
GLC ([…], time 14 day): 187 mg/dL
IP ([…], time 14 day): 6.5 mg/dL
K ([…], time 14 day): 3.5 meq/L
LDH ([…], time 14 day): 49.6 IU/L
Na ([…], time 14 day): 144.4 meq/L
PL ([…], time 14 day): 156.6 mg/dL
RALB ([…], time 14 day): 2.8 g/dL
TBIL ([…], time 14 day): 0.046 mg/dL
TC ([…], time 14 day): 88.2 mg/dL
TG ([…], time 14 day): 88.8 mg/dL
TP ([…], time 14 day): 6.3 g/dL
gamma-GTP ([…], time 14 day): 1.4 IU/L
A/G ([…], time 28 day): 0.7
ALP ([…], time 28 day): 844.2 IU/L
ALT ([…], time 28 day): 32.8 IU/L
AST ([…], time 28 day): 52.6 IU/L
BUN ([…], time 28 day): 16.2 mg/dL
CRE ([…], time 28 day): 0.3 mg/dL
Ca ([…], time 28 day): 11 mg/dL
Cl ([…], time 28 day): 103.8 meq/L
DBIL ([…], time 28 day): 0.012 mg/dL
GLC ([…], time 28 day): 189.6 mg/dL
IP ([…], time 28 day): 6.1 mg/dL
K ([…], time 28 day): 3.5 meq/L
LDH ([…], time 28 day): 53.6 IU/L
Na ([…], time 28 day): 144.4 meq/L
PL ([…], time 28 day): 167.2 mg/dL
RALB ([…], time 28 day): 2.7 g/dL
TBIL ([…], time 28 day): 0.056 mg/dL
TC ([…], time 28 day): 91.4 mg/dL
TG ([…], time 28 day): 132 mg/dL
TP ([…], time 28 day): 6.5 g/dL
gamma-GTP ([…], time 28 day): 1.4 IU/L
